Read-outs that look alike come from different tables or passages of the source.
Key:
RANTES = RANTES secretion from human precision cut lung slices (PCLS); type: cell-based; conditions: for inhibition of RANTES secretion from PCLS: TSA 10 μM or budesonide 50 nM 2 h prior
Protocol: (§1) FIG. 11. […] Secretion of IL-6 and RANTES was analyzed as described under materials and methods. Values shown are mean+/− s.d. from three samples.
(§2) The levels of cytokine secreted into the supernatants of PCLS and bronchoalveolar lavage (BAL) fluid samples were determined by ELISA according to standard protocols as previously described (Banerjee et al. 2008). The cytokine amounts were calculated from the standard curves in each plate. The limits of detection were 5 pg/ml for IL-4 and IL-6 and RANTES standards. Recombinant mouse IL-4 and IL-6 and human RANTES were used as controls.
(§3) Human lung slice preparation. Human PCLS were prepared as previously described (Cooper et al. 2008). Briefly, healthy whole human lungs were received from the NDRI, and the smallest lobe was dissected out and its main bronchus identified. The lobe was inflated using a 2% (wt/vol) low melting point agarose solution. Once the agarose had set, the lobe was sectioned, and cores of 8-mm diameter were made. The cores that contained a small airway by visual inspection were sliced at a thickness of 250 μm (Krumdieck Tissue Slicer; model no. MD4000; Alabama Research and Development) and collected in wells containing supplemented Ham's F-12 medium. Suitable airways (≦1-mm diameter) on slices were selected on the basis of the following criteria: presence of a full smooth muscle wall (i.e., cut perpendicular to direction of airway); presence of beating cilia to eliminate blood vessels; and unshared muscle walls at airway branch points to eliminate possible counteracting contractile forces. […] Adjacent slices containing contiguous segments of the same airway were paired to act as control to the variable tested and incubated at 37° C. on a rotating platform in a humidified air-CO2 (95-5%) incubator. Sections were placed in fresh media every 2-3 h during the remainder of day 1 and all of day 2 to rid the slice and media of agarose and endogenous substances released that could variably confound the production of inflammatory mediators and/or alter airway tone.
(§4) Three airways from each donor were used per condition; n values indicate the number of donors. Data are expressed as means± SEM. Statistical difference was shown by using a nonpaired t test.

IL-6 [1] = experiment: IL-6 secretion from human precision cut lung slices (PCLS); type: cell-based; conditions: for inhibition at 0.05 µM: Homo sapiens; for inhibition at 0.05 µM / inhibition of IL-6 secretion from PCLS: TSA 10 μM or budesonide 50 nM 2 h prior
Protocol: as §1, §2, §3, §4

[2] = tested on: mice sensitized and challenged with Aspergillus fumigatus (AF); experiment: Invasive lung function (FlexiVent), methacholine challenge, Aspergillus fumigatus sensitized and challenged mice; type: in vivo; conditions: TSA 0.6 mg/kg i.p., dexamethasone 2.5 mg/kg i.p.
Protocol: (§5) Mice were sensitized by intraperitoneal (I.P.) injections of 20 μg allergen, a protein extract of the ubiquitous, airborn fungus, Aspergillus fumigatus (AF), (Bayer Pharmaceuticals), in 100 μl PBS solution containing 2 mg of alum (Imject Alum, Pierce) on days 0 and 14 and challenged on days 25, 26, and 27 with 30 μl of Af extract in PBS (25 μg) intranasally (i.n.) (FIG. 1).
(§6) Lung resistance, compliance, elastance, tissue damping, tissue elastance, and airway resistance were recorded using the FlexiVent system (SCIREQ Scientific Respiratory Equipment Inc). The FlexiVent System Overview is shown in FIG. 1B: FlexiVent is a modular, multi-functional device that performs both mechanical ventilation and detailed measurements of respiratory mechanics in subjects.
(§7) The mice were anesthetized by an I.P. injection of a Ketamine (100 mg/kg) and Xylazine (20 mg/kg) mixture. After anesthesia, a half centimeter incision was made from the rostal to caudal direction; the flap of skin was retracted and the connective tissue was dissected away, and the trachea was exposed. The trachea was then cannulated between the second and third cartilage rings with a blunt-end stub adapter. The cannula was secured with suture. The mice were next connected to the Flexivent system. All spontaneous respirations were stopped with an intramuscular injection of Pancuronium Bromide (3 mg/kg) and the mice were then mechanically ventilated at respiratory rate of 140 beats/per minute with 0.25 ml of tidal volume. The Flexivent system then briefly interrupted the mechanical ventilation to apply a test signal, or perturbation to measure the respiratory mechanics. The respiratory mechanics were then calculated from the data collected while the perturbation was applied. […] At the end of testing the mice were disconnected and processed for multiple organ, blood, and fluid removal. The mice were first exsanguinated through the optical artery. Then bronchoalveolar lavage was performed through the tracheal canula. Finally, the peritoneal and the thoracic cavity were opened, and the lungs were removed for protein and histological processing.

[3] = tested on: naïve mice challenged with methacholine; experiment: Invasive lung function (FlexiVent), methacholine challenge, naïve mice; type: in vivo; conditions: dexamethasone 2.5 mg/kg i.p.
Protocol: as §6, §7

[4] = tested on: inflammatory cells in bronchoalveolar lavage (BAL) fluid; experiment: BAL cell count and differential; type: in vivo, mice
Protocol: as §5
After functional measurements were completed, lungs were lavaged with 1-ml aliquots of sterile saline through the tracheal cannula. After centrifuging (500 g for 10 min at 4° C.) the cell pellet was resuspended in RPMI. Differential cell counts were made from cytospin preparations as described (Elwood et al. 1991). Cells were identified as macrophages, eosinophils, neutrophils, and lymphocytes by standard morphology and at least 300 cells were counted under ×400 magnification. The percentage and absolute numbers of each cell type were then calculated. The supernatants were harvested and stored at −20° C. for further analysis.

HDAC = conditions: TSA 0.6 mg/kg i.p.
Protocol: HDAC activity was measured as described previously (Trivedi et al. 2007). […] 50 μg of total extract was incubated with HDAC assay substrate and incubated at 30° C. for 60 min. After the addition of diluted activator reagent, samples were incubated at room temperature for 15 min, and readings were taken by fluorescent microplate reader at an excitation of 360 nm and emission of 450 nm. A standard curve was performed according to the manufacturer's protocol.

IL-4 = IL-4 level in BAL fluid (ELISA); type: in vivo, mice
Protocol: as §5, §2

IL-6 [5] = experiment: IL-6 level in BAL fluid (ELISA); type: in vivo, mice
Protocol: as §5, §2

[6] = TNFα (10 ng/mL) and IFNγ (10,000 IU/mL) stimulated
[7] = mice sensitized and challenged with Aspergillus
[8] = unsensitized and unchallenged (naïve) mice

## CCCC1O[C@@H]2C[C@H]3[C@@H]4CCC5=CC(=O)C=C[C@]5(C)[C@H]4[C@@H](O)C[C@]3(C)[C@]2(C(=O)CO)O1 (some centres unmarked) [budesonide]
RANTES; Homo sapiens
  inhibition at 0.05 µM: 69%
IL-6 [1]; [6]
  inhibition at 0.05 µM: 52.7%
IL-6 [1]; TNFα (10 ng/mL) stimulated
  inhibition at 0.05 µM: 44.4%

## C[C@@H]1C[C@H]2[C@@H]3CCC4=CC(=O)C=C[C@]4(C)[C@@]3(F)[C@@H](O)C[C@]2(C)[C@@]1(O)C(=O)CO [dexamethasone]
[2]
  Emax of airway resistance in response to methacholine: 6 cmH2O/mL
  dynamic compliance, maximum inhibition by methacholine: 0.005 mL/cmH2O
[3]; TSA 0.6 mg/kg i.p. in DMSO
  Emax of airway (lung) resistance in response to methacholine: 2.3 cmH2O/mL
[3]; TSA 0.6 mg/kg i.p.
  dynamic compliance, maximum inhibition by methacholine: 0.010 mL/cmH2O

## CC(/C=C/C(=O)NO)=C\[C@@H](C)C(=O)c1ccc(N(C)C)cc1 [TSA, Trichostatin A]
RANTES; TNFα (10 ng/mL) and IFNγ (10,000 IU/mL) induced
  inhibition of RANTES secretion from PCLS: 55.1%+/−7.5%
RANTES; TNFα (10 ng/mL) induced
  inhibition of RANTES secretion from PCLS: 50%+/−23%
RANTES; unstimulated, TSA 10 μM
  basal RANTES secretion from PCLS: did not induce basal RANTES secretion
[2]
  dynamic compliance, maximum inhibition by methacholine: 0.008 mL/cmH2O
  half maximal effective concentration of methacholine (airway resistance): 20 mg/mL
  half maximal inhibitory concentration of methacholine on dynamic compliance: 5 mg/mL
[4]; Aspergillus challenged mice, TSA 0.6 mg/kg i.p., dexamethasone 2.5 mg/kg i.p.
  BAL eosinophil counts: no effect
[4]; Aspergillus sensitized and challenged mice, TSA 0.6 mg/kg i.p., dexamethasone 2.5 mg/kg i.p.
  total cell counts in BAL: no effect
[4]; after allergen sensitization and challenge
  percentages of inflammatory cells in the BAL: little effect
[4]; naïve mice, TSA 0.6 mg/kg i.p., dexamethasone 2.5 mg/kg i.p.
  total cell counts in BAL: no significant difference in cell counts
[4]; untreated mice or Aspergillus sensitized and challenged mice
  BAL macrophages, neutrophils, or lymphocytes: no significant differences
HDAC; [7]
  HDAC activity in lung tissue: effectively inhibited HDAC activity
HDAC; naïve mice
  HDAC activity in lung tissue: effectively inhibited HDAC activity
[3]; TSA 0.6 mg/kg i.p.
  dynamic compliance, maximum inhibition by methacholine: 0.032 mL/cmH2O
  half maximal inhibitory concentration of methacholine on dynamic compliance: 2.5 mg/mL
IL-4; [7]
  IL-4 in BAL: little effect on cytokine secretion
IL-4; [8]
  IL-4 in BAL: did not increase
IL-6 [1]; [6]
  inhibition of IL-6 secretion from PCLS: 18.8%+/−6.8%
IL-6 [1]; TNFα (10 ng/mL) stimulated
  inhibition of IL-6 secretion from PCLS: 30.2%+/−12.5%
IL-6 [1]; unstimulated, TSA 10 μM
  basal IL-6 secretion from PCLS: little effect on basal IL-6 secretion
IL-6 [5]; [7]
  IL-6 in BAL: little effect on cytokine secretion
IL-6 [5]; [8]
  IL-6 in BAL: did not increase
